Source: patent publication US10246418B2, “Crystal form of lenvatinib methanesulfonate salt and preparation method thereof” (CRYSTAL PHARMATECH CO., LTD., priority 2015, dated 2019)
Values after ≈ are worked out from the molar mass of the structure shown.

Columns and labels:
[1] = Solubility comparison: saturated solutions in SGF, FaSSIF, FeSSIF and high purity water, concentration by HPLC; conditions: for Solubility: HPLC; for solubility at 24 h: thermodynamic from solid
Experimental: Solubility comparison between crystalline Form M of lenvatinib mesylate of the present disclosure and anhydrate Form C in patent CN1890220A:
Crystalline Form M of lenvatinib mesylate prepared in example 1 and anhydrate Form C in CN1890220A were prepared into saturated solution in pH 1.8 SGF (Simulated gastric fluid), pH 5.0 FeSSIF (Fed state simulated intestinal fluid), FassIF (Fasted state simulated intestinal fluid) and high purity water. Concentrations in the saturated solutions were determined after 24 hours by HPLC.

[2] = Stability assessment of crystalline form by XRPD before and after storage; assay type: physicochemical; conditions: 7 days
Experimental: FIG. 7a˜7c show XRPD patterns overlay of crystalline Form M of lenvatinib mesylate before and after stored in the following conditions for 7 days: a) sealed in aluminum plastic bags at 25° C./60% RH; b) sealed in aluminum plastic bags at 40° C./75% RH; c) sealed in aluminum plastic bags at 60° C./75% RH.
Stability assessment of Form M of lenvatinib mesylate of the present disclosure:
Three samples of crystalline Form M of lenvatinib mesylate were stored under the following conditions: a) sealed in aluminum plastic bags at 25° C./60% RH; b) sealed in aluminum plastic bags at 40° C./75% RH; c) sealed in aluminum plastic bags at 60° C./75% RH. The samples were tested by XRPD before and after stored for 7 days.

In the case of `COc1cc2nccc(Oc3ccc(NC(=O)NC4CC4)c(Cl)c3)c2cc1C(N)=O.CS(=O)(=O)O` [Form C, reference compound], the Solubility ([1]; FaSSIF (fasted state simulated intestinal fluid), saturated solution, 24 h) is reported as 0.0015 mg/mL, the Solubility ([1]; FeSSIF (fed state simulated intestinal fluid) pH 5.0, saturated solution, 24 h) is reported as 0.0003 mg/mL and the Solubility ([1]; High purity water, saturated solution, 24 h) is reported as 1.0 mg/mL. The Solubility ([1]; SGF (simulated gastric fluid) pH 1.8, saturated solution, 24 h) was 0.64 mg/mL.
For `COc1cc2nccc(Oc3ccc(NC(=O)NC4CC4)c(Cl)c3)c2cc1C(N)=O` [Form M, 4-{3-Chloro-4-[(cyclopropylcarbamoyl)amino]phenoxy}-7-methoxy-6-quinolinecarboxamide], the “Crystalline form stability (XRPD pattern before and after storage)” value (“Crystalline form stability” below) ([2]; sealed in aluminum plastic bags at 25° C./60% RH) was “remained unchanged”, the “Crystalline form stability” value ([2]; sealed in aluminum plastic bags at 40° C./75% RH) was “remained unchanged” and the “Crystalline form stability” value ([2]; sealed in aluminum plastic bags at 60° C./75% RH) was “remained unchanged”. The “Solubility in comparison with Form C in patent CN1890220A” value ([1]; SGF, FaSSIF, FeSSIF, high purity water, 24 h) was “higher solubility”, the solubility at 24 h ([1]; fasted state simulated intestinal fluid (FaSSIF), fassif) was 0.024 mg/mL (≈ 56.2 µM) and the solubility at 24 h ([1]; fed state simulated intestinal fluid (FeSSIF), pH 5, fessif) was 0.0004 mg/mL (≈ 0.937 µM). It also gave a solubility at 24 h ([1]; high purity water, water) of 1.6 mg/mL (≈ 3750 µM) and a solubility at 24 h ([1]; simulated gastric fluid (SGF), pH 1.8, simulated gastric fluid) of 0.69 mg/mL (≈ 1620 µM).
